# Measurements: US20260027068A1, “METHODS OF ADM[…]-KETAMINE” (Perception Neuroscience, Inc., priority 2022, published 2026)
# Key:
# [1] = Phase 1 single ascending dose plasma pharmacokinetics of 40-minute IV infusion of R(−)-ketamine and its metabolites; conditions: for Tmax: all dose levels 5 mg to 150 mg; for AUC(0-inf) / Cmax / AUC(0-t): iv
# Description: This was a Phase 1 randomized, placebo-controlled, double-blind, single dose study conducted at one center. […] The pharmacokinetic (PK) population was 36 subjects, with 12 additional subjects receiving placebo. […] Subjects were male or female healthy subjects, 18 to 65 years of age. […] Cohort 1 was dosed at 5 mg, followed by Cohort 2 at 15 mg, Cohort 3 at 30 mg, Cohort 4 at 60 mg, Cohort 5 at 100 mg, and Cohort 6 at 150 mg R(−)-ketamine. […] In addition to the safety and tolerability data, the study also evaluated the dose-related PK of each 40-minute IV infusion of R(−)-ketamine.
# To evaluate the pharmacokinetics of R(−)-ketamine, blood was drawn from subjects for PK analysis at the following sampling times: pre-dose (−30 minutes); and from the start of infusion (5, 10, and 15 minutes [±1 minute], 30 minutes [±5 minutes], 40 minutes [immediately prior to infusion completion], 1, 1.5, 2, and 3 hours [±5 minutes], 4 and 8 hours [±10 minutes], 12 and 24 hours [±15 minutes]).
# Plasma PK parameters of R(−)-ketamine and its metabolites (norketamine, 6-hydroxynorketamine, and dehydronorketamine) evaluated on include the following: • Maximum plasma concentration (Cmax), • Time to Cmax (Tmax), • Area under the plasma concentration curve (AUC0-t, AUC0-∞) • Elimination rate constant (λz), • Half-live (t½) • Clearance (CL, P R(−)-ketamine only), • Volume of distribution (Vz, R(−)-ketamine only), and • Metabolite to parent ratios (area under curve [AUC] and Cmax).
# The dose proportionality was assessed both visually and statistically using calculated Cmax and AUC values. […] Continuous variables: Descriptive statistics included the number of non-missing values (n), arithmetic mean, standard deviation (SD), median, minimum, and maximum values. […] For PK concentration data, the number of non-missing values, number of below limit of quantification (BLQ) values, arithmetic mean, SD, median, minimum, maximum, coefficient of variation (CV %), geometric mean, and geometric CV (geo CV %) values are presented. For PK parameter data, the number of non-missing values, arithmetic mean, SD, median, minimum, maximum, CV %, geometric mean, and geometric CV (geo CV %) values are presented.
# Intravenous administration of allocated blinded study drug (Morning, Day 1) was infused over 40 minutes. Blood collection for plasma PK analysis occurred at infusion 5, 10, 15, 30, 40, 60, and 90 minutes, and 2, 3, 4, 8, and 12 hours after the start of infusion.
# Plasma concentrations of R(−)-ketamine and its metabolites norketamine, 6-hydroxynorketamine, and dehydronorketamine were determined using a suitable validated analytical method with a lower limit of quantitation (LOQ) of 1 ng/mL.
# The linearity of the increase in exposure with respect to the increasing dose administered was evaluated for Cmax and AUC for R(−)-ketamine and its metabolites (norketamine, 6-hydroxynorketamine and dehydronorketamine). […] The power model was used to estimate the slope parameter and the 90% confidence intervals for the slope.
# [2] = test system: mouse model of morphine addiction; experiment: Mouse model of morphine addiction; assay type: in vivo; conditions: co-administered to mice
# rats = experiment: Alcohol tolerance; assay type: in vivo
# CYP2C19 = CYP2C19 (Homo sapiens, UniProt P33261); experiment: In vitro CYP inhibition
# Sequence of CYP2C19 (P33261 whole entry): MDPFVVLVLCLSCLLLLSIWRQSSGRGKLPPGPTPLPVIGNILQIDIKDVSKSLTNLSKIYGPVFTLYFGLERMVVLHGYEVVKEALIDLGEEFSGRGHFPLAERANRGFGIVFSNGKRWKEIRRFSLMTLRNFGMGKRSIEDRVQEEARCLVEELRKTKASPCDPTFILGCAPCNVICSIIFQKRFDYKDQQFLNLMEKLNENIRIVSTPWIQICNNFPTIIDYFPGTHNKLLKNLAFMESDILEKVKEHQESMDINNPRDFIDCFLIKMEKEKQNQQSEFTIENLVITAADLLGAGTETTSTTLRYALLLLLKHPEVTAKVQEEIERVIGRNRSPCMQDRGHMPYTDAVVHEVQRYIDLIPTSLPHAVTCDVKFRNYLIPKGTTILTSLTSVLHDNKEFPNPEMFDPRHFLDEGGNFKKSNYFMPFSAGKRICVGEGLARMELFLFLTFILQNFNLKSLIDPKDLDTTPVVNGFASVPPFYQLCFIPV
# [3] = Diastolic blood pressure (vital signs)
# Description: The Investigational Medicinal Product (IMP) R(−)-ketamine hydrochloride in sterile water for intravenous injection was investigated as an […] treatment of TRD. The International Union of Pure and Applied Chemistry (IUPAC) name is of the IMP is (2R)-2-(2-chlorophenyl)-2-(methylamino)cyclohexan-1-one. Subjects received the solution at either 30 mg or 60 mg dose, or a placebo. The IMP or placebo was administered on Day 1 as a single IV infusion via an electronic infusion pump over 40 minutes. The duration of study participation for each subject was up to 29 days including a screening period, a 3-day in-clinic visit, and 2 follow-up visits. 101 subjects were enrolled in approximately 20 study centers in the EU and the US.
# Tympanic or temporal temperature, heart rate, blood pressure (SBP/DBP), respiratory rate, and SpO2 were assessed. Blood pressure and pulse measurements will be assessed with a completely automated device while the subject is supine or semi-supine. Manual techniques will be used only if an automated device is not available. Blood pressure and pulse measurements should be preceded by at least 5 minutes of rest for the subject in a quiet setting without distractions (e.g., television, cell phones). An abnormal blood pressure value at screening may be repeated once after 5 minutes of relaxation to determine the subject's eligibility. Blood pressure was recorded using the same arm and position (supine or semi-supine) throughout the study, where possible. Vital signs (to be taken before blood collection for laboratory tests) consisted of 1 pulse and 3 blood pressure measurements (3 consecutive blood pressure readings will be recorded at intervals of at least 1 minute). The average of the 3 blood pressure readings was recorded in the CRF. A pulse oximeter was used to measure peripheral capillary oxygen saturation (SpO2) continuously from pre-dose until 4-hours post-dose. A pulse oximeter was clipped onto the finger or foot of the subject, and light will be sent through the finger or foot and measured on the other side.
# In these tables, baseline value is defined as the last non-missing value prior to study drug administration.
# CYP1A2 = experiment: In vitro CYP induction
# [4] = test system: phencyclidine site of the N-methyl-D-aspartate (NMDA) receptor; conditions: compared with racemic ketamine or S(+)-ketamine; cited from earlier work
# [5] = test system: mouse model of depression; conditions: cited from earlier work
# [6] = both, human, plasma, intravenous
structure (smiles),measurement,setting,value
"CN[C@@]1(c2ccccc2Cl)CCCCC1=O.Cl [R(−)-ketamine, (2R)-2-(2-chlorophenyl)-2-(methylamino)cyclohexan-1-one]",Earliest timepoint at which concentrations were quantifiable in all subjects,"[1]; after start of infusion, LOQ 1 ng/mL",5 min
same,Vd,[1]; [6],345 to 921 L
same,clearance,[1]; [6],1280 to 1630 mL/min
same,half-life,[1]; [6],184 to 433 min
same,Tmax,"[1]; both, human, plasma, intravenous, Median plasma Tmax",40 min
same,Tmax,"[1]; both, human, plasma, intravenous, Plasma Tmax range",15 to 40 min
same,AUC(0-inf),"[1]; both, human, plasma, 5 mg",64 ng·h/mL
same,Cmax,"[1]; both, human, plasma, 5 mg",33.9 ng/mL
same,AUC(0-t),"[1]; both, human, plasma, 5 mg, Arithmetic mean AUC0-24h, 5 mg R(−)-ketamine IV",63.5 ng·h/mL
same,AUC(0-t),"[1]; both, human, plasma, 5 mg, Arithmetic mean AUC0-t, 5 mg R(−)-ketamine IV",57.5 ng·h/mL
same,AUC(0-inf),"[1]; both, human, plasma, 150 mg",1820 ng·h/mL
same,Cmax,"[1]; both, human, plasma, 150 mg",780 ng/mL
same,AUC(0-t),"[1]; both, human, plasma, 150 mg, Arithmetic mean AUC0-24h, 150 mg R(−)-ketamine IV",1720 ng·h/mL
same,AUC(0-t),"[1]; both, human, plasma, 150 mg, Arithmetic mean AUC0-t, 150 mg R(−)-ketamine IV",1720 ng·h/mL
same,Effect on the addictive properties of morphine,[2],significantly attenuated the addictive properties of morphine
same,Effect on alcohol tolerance,rats,mitigated the effects of alcohol tolerance
same,CYP2C19 inhibition,CYP2C19,inhibitor
same,"Subjects with change from baseline diastolic blood pressure >25 mmHg, number",[3]; 30 mg,1 n
same,"Subjects with change from baseline diastolic blood pressure >25 mmHg, percent",[3]; 30 mg,3.0%
same,"Subjects with post-baseline diastolic blood pressure >110 mmHg, number",[3]; 30 mg,0 n
same,"Subjects with post-baseline diastolic blood pressure >110 mmHg, percent",[3]; 30 mg,0.0%
same,Diastolic Blood Pressure: Mean,"[3]; 30 mg, Day 1, 15 minutes",77.4 mmHg
same,Diastolic Blood Pressure: Median,"[3]; 30 mg, Day 1, 15 minutes",79.0 mmHg
same,Diastolic Blood Pressure: Mean,"[3]; 30 mg, Day 1, 40 minutes",77.7 mmHg
same,Diastolic Blood Pressure: Median,"[3]; 30 mg, Day 1, 40 minutes",81.0 mmHg
same,Diastolic Blood Pressure: Mean,"[3]; 30 mg, Day 1, 60 minutes",75.4 mmHg
same,Diastolic Blood Pressure: Median,"[3]; 30 mg, Day 1, 60 minutes",75.0 mmHg
same,Diastolic Blood Pressure: Mean,"[3]; 30 mg, Day 1, 2 hours",77.3 mmHg
same,Diastolic Blood Pressure: Median,"[3]; 30 mg, Day 1, 2 hours",78.0 mmHg
same,Diastolic Blood Pressure: Mean,"[3]; 30 mg, Day 1, 4 hours",76.1 mmHg
same,Diastolic Blood Pressure: Median,"[3]; 30 mg, Day 1, 4 hours",76.0 mmHg
same,Diastolic Blood Pressure: Mean,"[3]; 30 mg, Day 1, 6 hours",75.2 mmHg
same,Diastolic Blood Pressure: Median,"[3]; 30 mg, Day 1, 6 hours",75.0 mmHg
same,Diastolic Blood Pressure: Mean,"[3]; 30 mg, Day 2 - Discharge",74.7 mmHg
same,Diastolic Blood Pressure: Median,"[3]; 30 mg, Day 2 - Discharge",75.0 mmHg
same,Diastolic Blood Pressure: Mean,"[3]; 30 mg, Day 8",75.8 mmHg
same,Diastolic Blood Pressure: Median,"[3]; 30 mg, Day 8",78.0 mmHg
same,Diastolic Blood Pressure: Mean,"[3]; 30 mg, Day 15",78.9 mmHg
same,Diastolic Blood Pressure: Median,"[3]; 30 mg, Day 15",79.0 mmHg
same,"Diastolic Blood Pressure: Change from Baseline, Mean","[3]; 30 mg, to Day 1, 15 minutes",0.5 mmHg
same,"Diastolic Blood Pressure: Change from Baseline, Median","[3]; 30 mg, to Day 1, 15 minutes",2.0 mmHg
same,"Diastolic Blood Pressure: Change from Baseline, Mean","[3]; 30 mg, to Day 1, 40 minutes",1.0 mmHg
same,"Diastolic Blood Pressure: Change from Baseline, Median","[3]; 30 mg, to Day 1, 40 minutes",1.0 mmHg
same,"Diastolic Blood Pressure: Change from Baseline, Mean","[3]; 30 mg, to Day 1, 60 minutes",−1.2 mmHg
same,"Diastolic Blood Pressure: Change from Baseline, Median","[3]; 30 mg, to Day 1, 60 minutes",−1.5 mmHg
same,"Diastolic Blood Pressure: Change from Baseline, Mean","[3]; 30 mg, to Day 1, 2 hours",0.5 mmHg
same,"Diastolic Blood Pressure: Change from Baseline, Median","[3]; 30 mg, to Day 1, 2 hours",−1.0 mmHg
same,"Diastolic Blood Pressure: Change from Baseline, Mean","[3]; 30 mg, to Day 1, 4 hours",−0.6 mmHg
same,"Diastolic Blood Pressure: Change from Baseline, Median","[3]; 30 mg, to Day 1, 4 hours",−1.0 mmHg
same,"Diastolic Blood Pressure: Change from Baseline, Mean","[3]; 30 mg, to Day 1, 6 hours",−1.5 mmHg
same,"Diastolic Blood Pressure: Change from Baseline, Median","[3]; 30 mg, to Day 1, 6 hours",−3.0 mmHg
same,"Diastolic Blood Pressure: Change from Baseline, Mean","[3]; 30 mg, to Day 2 - Discharge",−2.0 mmHg
same,"Diastolic Blood Pressure: Change from Baseline, Median","[3]; 30 mg, to Day 2 - Discharge",−2.0 mmHg
same,"Diastolic Blood Pressure: Change from Baseline, Mean","[3]; 30 mg, to Day 8",−1.0 mmHg
same,"Diastolic Blood Pressure: Change from Baseline, Median","[3]; 30 mg, to Day 8",−1.0 mmHg
same,"Diastolic Blood Pressure: Change from Baseline, Mean","[3]; 30 mg, to Day 15",2.1 mmHg
same,"Diastolic Blood Pressure: Change from Baseline, Median","[3]; 30 mg, to Day 15",1.0 mmHg
same,"Subjects with change from baseline diastolic blood pressure >25 mmHg, number",[3]; 60 mg,1 n
same,"Subjects with change from baseline diastolic blood pressure >25 mmHg, percent",[3]; 60 mg,2.9%
same,"Subjects with post-baseline diastolic blood pressure >110 mmHg, number",[3]; 60 mg,0 n
same,"Subjects with post-baseline diastolic blood pressure >110 mmHg, percent",[3]; 60 mg,0.0%
same,Diastolic Blood Pressure: Mean,"[3]; 60 mg, Day 1, 15 minutes",78.8 mmHg
same,Diastolic Blood Pressure: Median,"[3]; 60 mg, Day 1, 15 minutes",79.5 mmHg
same,Diastolic Blood Pressure: Mean,"[3]; 60 mg, Day 1, 40 minutes",78.1 mmHg
same,Diastolic Blood Pressure: Median,"[3]; 60 mg, Day 1, 40 minutes",78.0 mmHg
same,Diastolic Blood Pressure: Mean,"[3]; 60 mg, Day 1, 60 minutes",79.5 mmHg
same,Diastolic Blood Pressure: Median,"[3]; 60 mg, Day 1, 60 minutes",77.0 mmHg
same,Diastolic Blood Pressure: Mean,"[3]; 60 mg, Day 1, 2 hours",75.7 mmHg
same,Diastolic Blood Pressure: Median,"[3]; 60 mg, Day 1, 2 hours",75.0 mmHg
same,Diastolic Blood Pressure: Mean,"[3]; 60 mg, Day 1, 4 hours",75.1 mmHg
same,Diastolic Blood Pressure: Median,"[3]; 60 mg, Day 1, 4 hours",74.0 mmHg
same,Diastolic Blood Pressure: Mean,"[3]; 60 mg, Day 1, 6 hours",75.8 mmHg
same,Diastolic Blood Pressure: Median,"[3]; 60 mg, Day 1, 6 hours",76.5 mmHg
same,Diastolic Blood Pressure: Mean,"[3]; 60 mg, Day 2 - Discharge",77.2 mmHg
same,Diastolic Blood Pressure: Median,"[3]; 60 mg, Day 2 - Discharge",77.0 mmHg
same,Diastolic Blood Pressure: Mean,"[3]; 60 mg, Day 8",78.7 mmHg
same,Diastolic Blood Pressure: Median,"[3]; 60 mg, Day 8",78.0 mmHg
same,Diastolic Blood Pressure: Mean,"[3]; 60 mg, Day 15",77.5 mmHg
same,Diastolic Blood Pressure: Median,"[3]; 60 mg, Day 15",78.0 mmHg
same,"Diastolic Blood Pressure: Change from Baseline, Mean","[3]; 60 mg, to Day 1, 15 minutes",2.2 mmHg
same,"Diastolic Blood Pressure: Change from Baseline, Median","[3]; 60 mg, to Day 1, 15 minutes",1.5 mmHg
same,"Diastolic Blood Pressure: Change from Baseline, Mean","[3]; 60 mg, to Day 1, 40 minutes",2.4 mmHg
same,"Diastolic Blood Pressure: Change from Baseline, Median","[3]; 60 mg, to Day 1, 40 minutes",2.0 mmHg
same,"Diastolic Blood Pressure: Change from Baseline, Mean","[3]; 60 mg, to Day 1, 60 minutes",3.2 mmHg
same,"Diastolic Blood Pressure: Change from Baseline, Median","[3]; 60 mg, to Day 1, 60 minutes",4.0 mmHg
same,"Diastolic Blood Pressure: Change from Baseline, Mean","[3]; 60 mg, to Day 1, 2 hours",−0.1 mmHg
same,"Diastolic Blood Pressure: Change from Baseline, Median","[3]; 60 mg, to Day 1, 2 hours",0.0 mmHg
same,"Diastolic Blood Pressure: Change from Baseline, Mean","[3]; 60 mg, to Day 1, 4 hours",−0.6 mmHg
same,"Diastolic Blood Pressure: Change from Baseline, Median","[3]; 60 mg, to Day 1, 4 hours",0.0 mmHg
same,"Diastolic Blood Pressure: Change from Baseline, Mean","[3]; 60 mg, to Day 1, 6 hours",−0.0 mmHg
same,"Diastolic Blood Pressure: Change from Baseline, Median","[3]; 60 mg, to Day 1, 6 hours",−1.0 mmHg
same,"Diastolic Blood Pressure: Change from Baseline, Mean","[3]; 60 mg, to Day 2 - Discharge",1.5 mmHg
same,"Diastolic Blood Pressure: Change from Baseline, Median","[3]; 60 mg, to Day 2 - Discharge",1.0 mmHg
same,"Diastolic Blood Pressure: Change from Baseline, Mean","[3]; 60 mg, to Day 8",3.0 mmHg
same,"Diastolic Blood Pressure: Change from Baseline, Median","[3]; 60 mg, to Day 8",3.0 mmHg
same,"Diastolic Blood Pressure: Change from Baseline, Mean","[3]; 60 mg, to Day 15",1.7 mmHg
same,"Diastolic Blood Pressure: Change from Baseline, Median","[3]; 60 mg, to Day 15",1.0 mmHg
same,CYP1A2 induction,CYP1A2,inducer
same,Lower affinity to the NMDA receptor,[4],4 fold
same,Antidepressant effects on depression-like symptoms,[5],more potent antidepressant effects on the depression-like symptoms when compared to S(+)-ketamine
